Results taken from doi:10.1101/2021.04.08.439011v1 (biorxiv, 2021).

What was measured:
Conditions in all cases: 0.1 µM; binder
ALK(C1156Y) = ALK(C1156Y) (Homo sapiens, UniProt Q9UM73, C1156Y)
ALK(L1196M) = ALK(L1196M) (Homo sapiens, UniProt Q9UM73, L1196M)
AMPK-alpha2 = AMPK-alpha2 (Homo sapiens, UniProt P54646)
CDKL2 = CDKL2 (Homo sapiens, UniProt Q92772)
CSNK2A2 = CSNK2A2 (Homo sapiens, UniProt P19784)
DCAMKL1 = DCAMKL1 (Homo sapiens, UniProt O15075)
EPHA1 = EPHA1 (Homo sapiens, UniProt P21709)
EPHA2 = EPHA2 (Homo sapiens, UniProt P29317)
FGFR3(G697C) = FGFR3(G697C) (Homo sapiens, UniProt P22607, G697C)
FGFR4 = FGFR4 (Homo sapiens, UniProt P22455)
HASPIN = HASPIN (Homo sapiens, UniProt Q8TF76)
HUNK = HUNK (Homo sapiens, UniProt P57058)
JNK2 = JNK2 (Homo sapiens, UniProt P45984)
LCK = LCK (Homo sapiens, UniProt P06239)
MAP3K1 = MAP3K1 (Homo sapiens, UniProt Q13233)
MEK5 = MEK5 (Homo sapiens, UniProt Q13163)
MET(Y1235D) = MET(Y1235D) (Homo sapiens, UniProt P08581, Y1235D)
MLK1 = MLK1 (Homo sapiens, UniProt P80192)
PFTK1 = PFTK1 (Homo sapiens, UniProt O94921)
PIK3C2G = PIK3C2G (Homo sapiens, UniProt O75747)
PIK3CA(E545A) = PIK3CA(E545A) (Homo sapiens, UniProt P42336, E545A)
PIK3CA(E545K) = PIK3CA(E545K) (Homo sapiens, UniProt P42336, E545K)
PIM3 = PIM3 (Homo sapiens, UniProt Q86V86)
PNCK = PNCK (Homo sapiens, UniProt Q6P2M8)
PRKCD = PRKCD (Homo sapiens, UniProt Q05655)
PRKD1 = PRKD1 (Homo sapiens, UniProt Q15139)
ROCK2 = ROCK2 (Homo sapiens, UniProt O75116)
SRC = SRC (Homo sapiens, UniProt P12931)
TESK1 = TESK1 (Homo sapiens, UniProt Q15569)
TNK2 = TNK2 (Homo sapiens, UniProt Q07912)
VPS34 = VPS34 (Homo sapiens, UniProt Q8NEB9)
Sequence of VPS34 (Q8NEB9 whole entry): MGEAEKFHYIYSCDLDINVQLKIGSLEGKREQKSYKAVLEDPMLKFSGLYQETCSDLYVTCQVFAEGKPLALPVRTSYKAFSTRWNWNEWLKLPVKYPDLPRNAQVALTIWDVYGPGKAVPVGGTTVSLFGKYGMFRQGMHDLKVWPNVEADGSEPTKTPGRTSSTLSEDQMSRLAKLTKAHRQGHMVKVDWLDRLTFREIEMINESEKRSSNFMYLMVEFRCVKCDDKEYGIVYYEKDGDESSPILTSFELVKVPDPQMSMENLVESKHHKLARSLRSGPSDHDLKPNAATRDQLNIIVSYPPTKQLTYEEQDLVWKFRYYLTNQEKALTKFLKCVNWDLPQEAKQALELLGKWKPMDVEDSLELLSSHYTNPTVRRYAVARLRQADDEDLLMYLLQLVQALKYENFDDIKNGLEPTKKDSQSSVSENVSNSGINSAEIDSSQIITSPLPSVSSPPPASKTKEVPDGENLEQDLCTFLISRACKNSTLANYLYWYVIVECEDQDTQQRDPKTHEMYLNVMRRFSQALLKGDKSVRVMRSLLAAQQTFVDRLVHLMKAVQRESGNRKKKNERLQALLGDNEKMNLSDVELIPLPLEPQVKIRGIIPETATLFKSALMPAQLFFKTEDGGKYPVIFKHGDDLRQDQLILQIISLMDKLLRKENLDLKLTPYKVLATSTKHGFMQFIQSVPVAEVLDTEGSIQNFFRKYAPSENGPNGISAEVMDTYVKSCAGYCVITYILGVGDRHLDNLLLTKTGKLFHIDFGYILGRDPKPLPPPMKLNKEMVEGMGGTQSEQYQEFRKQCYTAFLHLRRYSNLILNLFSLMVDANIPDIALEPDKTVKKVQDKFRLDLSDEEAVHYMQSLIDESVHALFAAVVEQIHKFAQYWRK

Sequence of MEK5 (Q13163 whole entry): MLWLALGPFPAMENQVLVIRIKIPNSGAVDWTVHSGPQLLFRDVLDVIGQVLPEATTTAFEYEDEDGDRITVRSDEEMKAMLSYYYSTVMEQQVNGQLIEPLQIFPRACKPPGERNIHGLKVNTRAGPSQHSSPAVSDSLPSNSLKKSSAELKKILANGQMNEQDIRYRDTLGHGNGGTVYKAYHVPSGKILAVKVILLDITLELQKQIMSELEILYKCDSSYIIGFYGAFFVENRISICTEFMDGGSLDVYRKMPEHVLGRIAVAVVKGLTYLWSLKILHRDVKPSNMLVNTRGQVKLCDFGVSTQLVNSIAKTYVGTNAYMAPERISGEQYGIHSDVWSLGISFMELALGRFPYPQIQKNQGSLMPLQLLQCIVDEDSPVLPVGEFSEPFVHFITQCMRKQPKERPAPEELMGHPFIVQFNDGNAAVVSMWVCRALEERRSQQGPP
Sequence of SRC (P12931 whole entry): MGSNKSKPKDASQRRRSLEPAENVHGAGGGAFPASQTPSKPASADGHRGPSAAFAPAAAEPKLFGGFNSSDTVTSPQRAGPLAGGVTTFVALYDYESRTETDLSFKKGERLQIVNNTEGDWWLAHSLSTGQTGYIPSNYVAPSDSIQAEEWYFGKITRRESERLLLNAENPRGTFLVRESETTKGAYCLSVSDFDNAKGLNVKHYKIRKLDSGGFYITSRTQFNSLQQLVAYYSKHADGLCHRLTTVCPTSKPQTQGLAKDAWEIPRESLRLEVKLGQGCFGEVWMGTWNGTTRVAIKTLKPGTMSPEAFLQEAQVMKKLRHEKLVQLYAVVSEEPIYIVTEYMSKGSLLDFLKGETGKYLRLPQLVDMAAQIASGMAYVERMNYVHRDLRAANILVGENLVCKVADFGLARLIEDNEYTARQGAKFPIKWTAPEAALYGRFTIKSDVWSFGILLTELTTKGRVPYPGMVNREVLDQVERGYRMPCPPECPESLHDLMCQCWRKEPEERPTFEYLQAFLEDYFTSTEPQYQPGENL
Sequence of ROCK2 (O75116 whole entry): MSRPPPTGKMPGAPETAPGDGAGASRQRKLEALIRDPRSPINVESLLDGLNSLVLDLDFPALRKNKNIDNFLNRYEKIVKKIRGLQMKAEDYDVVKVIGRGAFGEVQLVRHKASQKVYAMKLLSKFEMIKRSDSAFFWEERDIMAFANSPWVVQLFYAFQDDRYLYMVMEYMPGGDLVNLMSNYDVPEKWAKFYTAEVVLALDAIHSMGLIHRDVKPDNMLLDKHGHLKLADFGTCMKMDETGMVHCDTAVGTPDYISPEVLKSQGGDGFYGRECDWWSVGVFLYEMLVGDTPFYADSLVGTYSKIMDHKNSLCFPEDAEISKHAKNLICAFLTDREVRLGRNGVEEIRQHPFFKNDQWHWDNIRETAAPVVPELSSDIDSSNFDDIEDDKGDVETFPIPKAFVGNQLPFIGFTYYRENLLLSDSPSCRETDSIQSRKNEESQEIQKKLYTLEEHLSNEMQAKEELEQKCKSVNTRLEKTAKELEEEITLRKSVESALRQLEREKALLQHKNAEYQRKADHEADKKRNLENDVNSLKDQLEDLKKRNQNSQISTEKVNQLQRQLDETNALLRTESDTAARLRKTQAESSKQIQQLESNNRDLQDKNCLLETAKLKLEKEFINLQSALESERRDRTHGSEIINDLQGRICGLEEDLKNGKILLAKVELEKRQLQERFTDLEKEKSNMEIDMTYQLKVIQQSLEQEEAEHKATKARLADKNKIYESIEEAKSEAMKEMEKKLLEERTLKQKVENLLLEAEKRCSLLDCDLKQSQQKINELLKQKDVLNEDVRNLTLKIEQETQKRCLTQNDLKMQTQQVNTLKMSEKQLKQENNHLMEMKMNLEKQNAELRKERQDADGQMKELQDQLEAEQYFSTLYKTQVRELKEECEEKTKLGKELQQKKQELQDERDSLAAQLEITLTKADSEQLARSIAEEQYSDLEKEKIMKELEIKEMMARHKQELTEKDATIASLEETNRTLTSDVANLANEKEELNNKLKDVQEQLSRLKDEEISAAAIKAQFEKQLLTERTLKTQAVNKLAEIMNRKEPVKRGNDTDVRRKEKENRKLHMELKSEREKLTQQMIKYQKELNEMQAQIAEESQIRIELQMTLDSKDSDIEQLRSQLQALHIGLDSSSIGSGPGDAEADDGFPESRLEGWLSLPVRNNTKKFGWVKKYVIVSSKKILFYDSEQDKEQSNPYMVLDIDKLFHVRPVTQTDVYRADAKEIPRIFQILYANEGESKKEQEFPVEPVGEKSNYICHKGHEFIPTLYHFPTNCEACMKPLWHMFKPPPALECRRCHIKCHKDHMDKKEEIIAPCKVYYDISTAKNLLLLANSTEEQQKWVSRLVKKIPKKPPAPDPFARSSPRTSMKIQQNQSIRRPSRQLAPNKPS
Sequence of AMPK-alpha2 (P54646 whole entry): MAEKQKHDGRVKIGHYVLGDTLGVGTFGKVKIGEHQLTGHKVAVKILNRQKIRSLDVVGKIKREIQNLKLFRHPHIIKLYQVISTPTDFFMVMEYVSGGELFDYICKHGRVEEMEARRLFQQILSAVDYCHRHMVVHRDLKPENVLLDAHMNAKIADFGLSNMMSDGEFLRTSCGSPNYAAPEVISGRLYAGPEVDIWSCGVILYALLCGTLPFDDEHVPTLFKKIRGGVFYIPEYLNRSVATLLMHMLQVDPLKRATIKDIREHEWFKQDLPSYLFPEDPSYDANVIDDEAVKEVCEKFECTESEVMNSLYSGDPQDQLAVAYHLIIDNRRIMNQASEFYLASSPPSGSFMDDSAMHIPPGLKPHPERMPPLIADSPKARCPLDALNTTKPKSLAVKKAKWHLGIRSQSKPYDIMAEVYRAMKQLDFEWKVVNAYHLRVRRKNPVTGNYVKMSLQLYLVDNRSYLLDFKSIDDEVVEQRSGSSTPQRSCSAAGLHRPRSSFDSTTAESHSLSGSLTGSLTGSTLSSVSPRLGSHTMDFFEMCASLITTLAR
Sequence of LCK (P06239 whole entry): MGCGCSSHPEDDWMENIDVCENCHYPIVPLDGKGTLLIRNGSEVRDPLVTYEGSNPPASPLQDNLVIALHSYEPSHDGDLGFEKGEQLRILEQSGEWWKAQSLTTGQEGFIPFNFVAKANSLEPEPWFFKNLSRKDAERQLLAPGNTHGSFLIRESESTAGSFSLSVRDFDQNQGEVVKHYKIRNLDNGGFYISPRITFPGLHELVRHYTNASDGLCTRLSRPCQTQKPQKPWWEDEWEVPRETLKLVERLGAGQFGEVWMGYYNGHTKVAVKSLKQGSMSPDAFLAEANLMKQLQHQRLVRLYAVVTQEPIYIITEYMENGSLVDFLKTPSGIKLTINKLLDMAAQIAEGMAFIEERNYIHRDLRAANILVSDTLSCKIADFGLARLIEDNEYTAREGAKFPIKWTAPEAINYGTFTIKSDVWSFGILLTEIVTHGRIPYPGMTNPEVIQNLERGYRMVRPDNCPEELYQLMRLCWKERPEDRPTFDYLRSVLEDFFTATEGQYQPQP
Sequence of PRKCD (Q05655 whole entry): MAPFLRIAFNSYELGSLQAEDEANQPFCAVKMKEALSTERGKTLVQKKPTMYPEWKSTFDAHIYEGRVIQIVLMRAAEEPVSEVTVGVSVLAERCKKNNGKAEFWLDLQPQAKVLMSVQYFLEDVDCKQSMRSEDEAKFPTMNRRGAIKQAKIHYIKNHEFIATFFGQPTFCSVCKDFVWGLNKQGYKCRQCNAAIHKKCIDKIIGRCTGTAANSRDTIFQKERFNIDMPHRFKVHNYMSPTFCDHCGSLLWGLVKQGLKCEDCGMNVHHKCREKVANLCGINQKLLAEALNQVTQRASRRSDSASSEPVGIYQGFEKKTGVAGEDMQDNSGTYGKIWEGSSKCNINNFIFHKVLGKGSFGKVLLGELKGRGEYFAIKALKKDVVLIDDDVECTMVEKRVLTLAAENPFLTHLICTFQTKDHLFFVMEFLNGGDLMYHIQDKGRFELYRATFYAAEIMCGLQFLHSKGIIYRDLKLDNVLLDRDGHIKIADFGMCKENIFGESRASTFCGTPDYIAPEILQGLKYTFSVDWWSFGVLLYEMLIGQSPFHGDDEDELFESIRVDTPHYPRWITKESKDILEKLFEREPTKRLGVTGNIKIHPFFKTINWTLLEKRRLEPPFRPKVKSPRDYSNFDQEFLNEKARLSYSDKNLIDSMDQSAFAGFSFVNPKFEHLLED

## CNc1ncc2cc(-c3ccc(-c4cccc(C)n4)cc3Cl)c(=O)n(C[C@H]3OC[C@H](N)CO3)c2n1 [compound 6, G-5555]
ALK(C1156Y)
  Percent Control: 100%
ALK(L1196M)
  Percent Control: 100%
AMPK-alpha2
  Percent Control: 93%
CDKL2
  Percent Control: 100%
CSNK2A2
  Percent Control: 96%
DCAMKL1
  Percent Control: 80%
EPHA1
  Percent Control: 64%
EPHA2
  Percent Control: 100%
FGFR3(G697C)
  Percent Control: 99%
FGFR4
  Percent Control: 100%
HASPIN
  Percent Control: 87%
HUNK
  Percent Control: 100%
JNK2
  Percent Control: 100%
LCK
  Percent Control: 58%
MAP3K1
  Percent Control: 81%
MEK5
  Percent Control: 13%
MET(Y1235D)
  Percent Control: 100%
MLK1
  Percent Control: 100%
PFTK1
  Percent Control: 100%
PIK3C2G
  Percent Control: 95%
PIK3CA(E545A)
  Percent Control: 88%
PIK3CA(E545K)
  Percent Control: 85%
PIM3
  Percent Control: 100%
PNCK
  Percent Control: 97%
PRKCD
  Percent Control: 100%
PRKD1
  Percent Control: 68%
ROCK2
  Percent Control: 94%
SRC
  Percent Control: 100%
TESK1
  Percent Control: 83%
TNK2
  Percent Control: 92%
VPS34
  Percent Control: 86%
